Where two headings read alike, the source gives them in different places.
Test system: panel of 183 cancer cell lines
Test: Cell panel of 183 cancer cell lines, viability (CTG) at Crown Bioscience
Assay type: cell-based
Settings: Homo sapiens
From the text: The panel consisted of cell lines with any substitution at position 12 of KRAS, NRAS or HRAS (KRAS(G12X), NRAS(G12X), HRAS(G12X)); substitutions in KRAS, NRAS or HRAS at any position other than 12, 13 and 61 (KRAS(other/VUS), NRAS(other/VUS), HRAS(other/VUS)); other oncogenic mutations in the RAS pathway (ABL1, ALK, ARAF, BRAF, CBL, EGFR, ERBB2, ERBB3, ERBB4, ERRFI1, FGFR1, FGFR2, FGFR3, FGFR4, FLT3, HRAS, IGF1R, JAK2, KIT, MAP2K1, MAP2K2, MAPK1, MET, NF1, NRAS, NTRK1, NTRK2, NTRK3, PDGFRA, PTPN11, RAC1, RAF1, RASA1, RET, RIT1, ROS1 and SOS1); and no oncogenic mutations in the RAS pathway. […] Cells were incubated for 120 h, and cell viability was determined using the CellTiter-Glo Luminescent Cell Viability Assay (CTG) (Promega, G7572) according to the manufacturer’s instructions.

CCn1c(-c2cc(N3CCN(C4CC4)CC3)cnc2[C@H](C)OC)c2c3cc(ccc31)-c1csc(n1)C[C@H](NC(=O)[C@H]1[C@@H]3COC[C@@H]31)C(=O)N1CCC[C@H](N1)C(=O)OCC(C)(C)C2 [RMC-7977]
EC50 (JHH-2, read-out: RMC-7977 EC50 (M), JHH2, ROS1 fusion, Liver): 5.37e-09 M | EC50 (KARPAS-299, read-out: RMC-7977 EC50 (M), KARPAS299, ALK fusion, Blood/lymphoma): 9.47e-08 M | EC50 (KATO III, read-out: RMC-7977 EC50 (M), KATOIII, RAS pathway WT, Stomach): 1.48e-08 M | EC50 (KHOS/NP, read-out: RMC-7977 EC50 (M), KHOSNP, KRAS A59T, Bone): 1.02e-09 M | EC50 (KM 12L4, read-out: RMC-7977 EC50 (M), KM12L4, NTRK1 fusion, Large intestine/Colorectum): 5.14e-09 M | EC50 (KRAS^G12X mutant cell lines, read-out: median EC50): 2.4e-09 M | EC50 (KYSE-150, read-out: RMC-7977 EC50 (M), KYSE150, ERBB3 mut, HN/Esophagus): 5.92e-09 M | EC50 (KYSE-270, KYSE270, RTKMUT/fusion, read-out: EC50): 5.99e-09 M | EC50 (KYSE-270, read-out: RMC-7977 EC50 (M), KYSE270, EGFR mut, HN/Esophagus): 5.99e-09 M | EC50 (KYSE-410, read-out: RMC-7977 EC50 (M), KYSE410, KRAS G12C, HN/Esophagus): 4.07e-09 M | EC50 (LC-2-ad, read-out: RMC-7977 EC50 (M), LC2AD, RET fusion, Lung): 5.15e-09 M | EC50 (LCLC-97TM1, read-out: RMC-7977 EC50 (M), LCLC97TM1, KRAS G12V, Lung): 3.47e-10 M | EC50 (LCLC-103H, read-out: RMC-7977 EC50 (M), LCLC103H, NF1 LOF, Lung): 3.67e-07 M | EC50 (LN-229, read-out: RMC-7977 EC50 (M), LN229, PTPN11 mut, Brain&Nerves): 6.69e-09 M | EC50 (LS174T, read-out: RMC-7977 EC50 (M), LS174T, KRAS G12D, Large intestine/Colorectum): 2.24e-08 M | EC50 (LS180, read-out: RMC-7977 EC50 (M), LS180, KRAS G12D, Large intestine/Colorectum): 1.62e-08 M | EC50 (LS-123, read-out: RMC-7977 EC50 (M), LS123, KRAS G12S, Large intestine/Colorectum): 1.29e-09 M | EC50 (LS-513, read-out: RMC-7977 EC50 (M), LS513, KRAS G12D, Large intestine/Colorectum): 1.2e-09 M | EC50 (LS-1034, read-out: RMC-7977 EC50 (M), LS1034, KRAS A146T, Large intestine/Colorectum): 2.51e-08 M | EC50 (LoVo, read-out: RMC-7977 EC50 (M), LOVO, KRAS G13D, Large intestine/Colorectum): 5.62e-08 M | EC50 (MCF7, read-out: RMC-7977 EC50 (M), MCF7, RAS pathway WT, Breast): > 1e-06 M | EC50 (MES-SA, read-out: RMC-7977 EC50 (M), MESSA, RAS pathway WT, Uterus): > 1e-06 M | EC50 (MFE-296, read-out: RMC-7977 EC50 (M), MFE296, RAS pathway WT, Uterus): > 1e-06 M | EC50 (MIA PaCa-2, read-out: RMC-7977 EC50 (M), MIAPACA2, KRAS G12C, Lung): 4.27e-09 M | EC50 (MKN-1, read-out: RMC-7977 EC50 (M), MKN1, RAS pathway WT, Stomach): 4.87e-08 M | EC50 (MKN-45, read-out: RMC-7977 EC50 (M), MKN45, MET amp, Stomach): 8.64e-09 M | EC50 (MeWo, read-out: RMC-7977 EC50 (M), MEWO, NF1 LOF, Skin): 4.86e-09 M | EC50 (NCI-H23, read-out: RMC-7977 EC50 (M), NCIH23, KRAS G12C, Lung): 8.51e-10 M | EC50 (NCI-H358, read-out: RMC-7977 EC50 (M), NCIH358, KRAS G12C, Lung): 6.31e-10 M | EC50 (NCI-H441, read-out: RMC-7977 EC50 (M), NCIH441, KRAS G12V, Lung): 3.89e-10 M | EC50 (NCI-H460, read-out: RMC-7977 EC50 (M), NCIH460, KRAS Q61H, Lung): 6.17e-09 M | EC50 (NCI-H508, read-out: RMC-7977 EC50 (M), NCIH508, BRAF mut other, Large intestine/Colorectum): 1.21e-07 M | EC50 (NCI-H520, read-out: RMC-7977 EC50 (M), NCIH520, RAS pathway WT, Lung): 2.85e-08 M | EC50 (NCI-H716, read-out: RMC-7977 EC50 (M), NCIH716, KRAS R97I, Large intestine/Colorectum): 2.75e-09 M | EC50 (NCI-H727, read-out: RMC-7977 EC50 (M), NCIH727, KRAS G12V, Lung): 7.24e-10 M | EC50 (NCI-H747, read-out: RMC-7977 EC50 (M), NCIH747, KRAS G13D, Large intestine/Colorectum): 1.82e-09 M | EC50 (NCI-H1155, read-out: RMC-7977 EC50 (M), NCIH1155, KRAS Q61H, Lung): > 1e-06 M | EC50 (NCI-H1299, read-out: RMC-7977 EC50 (M), NCIH1299, NRAS Q61K, Lung): 1.78e-09 M | EC50 (NCI-H1373, read-out: RMC-7977 EC50 (M), NCIH1373, KRAS G12C, Lung): 1.78e-09 M | EC50 (NCI-H1395, read-out: RMC-7977 EC50 (M), NCIH1395, BRAF mut other, Lung): > 1e-06 M | EC50 (NCI-H1581, read-out: RMC-7977 EC50 (M), NCIH1581, RAS pathway WT, Lung): 5.55e-08 M | EC50 (NCI-H1650, read-out: RMC-7977 EC50 (M), NCIH1650, EGFR mut, Lung): 4.04e-08 M | EC50 (NCI-H1666, read-out: RMC-7977 EC50 (M), NCIH1666, BRAF mut other, Lung): 8.2e-09 M | EC50 (NCI-H1792, read-out: RMC-7977 EC50 (M), NCIH1792, KRAS G12C, Lung): 1.91e-09 M | EC50 (NCI-H1838, read-out: RMC-7977 EC50 (M), NCIH1838, NF1 LOF, Lung): 8.76e-09 M | EC50 (NCI-H1915, read-out: RMC-7977 EC50 (M), NCIH1915, HRAS Q61L, Lung): 1.62e-08 M | EC50 (NCI-H1944, read-out: RMC-7977 EC50 (M), NCIH1944, KRAS G13D, Lung): 3.16e-08 M | EC50 (NCI-H1975, read-out: RMC-7977 EC50 (M), NCIH1975, EGFR mut, Lung): 4.07e-09 M | EC50 (NCI-H1993, read-out: RMC-7977 EC50 (M), NCIH1993, MET amp, Lung): 4.57e-09 M | EC50 (NCI-H2009, read-out: RMC-7977 EC50 (M), NCIH2009, KRAS G12A, Lung): 5.75e-09 M | EC50 (NCI-H2087, read-out: RMC-7977 EC50 (M), NCIH2087, NRAS Q61K, Lung): 5.89e-10 M | EC50 (NCI-H2110, read-out: RMC-7977 EC50 (M), NCIH2110, PTPN11 mut, Lung): 7.95e-09 M | EC50 (NCI-H2122, read-out: RMC-7977 EC50 (M), NCIH2122, KRAS G12C, Lung): 9.33e-10 M | EC50 (NCI-H2172, read-out: RMC-7977 EC50 (M), NCIH2172, RAS pathway WT, Lung): 4.73e-07 M | EC50 (NCI-H2228, read-out: RMC-7977 EC50 (M), NCIH2228, ALK fusion, Lung): 1.41e-08 M | EC50 (NCI-H3122, read-out: RMC-7977 EC50 (M), NCIH3122, ALK fusion, Lung): 4.62e-09 M | EC50 (NCI-H3255, read-out: RMC-7977 EC50 (M), NCIH3255, EGFR mut, Lung): 6.28e-09 M | EC50 (NF1^LOF cell lines, read-out: median EC50): 3.25e-08 M | EC50 (NRAS and HRAS mutant cell lines, read-out: median EC50): 6.76e-09 M | EC50 (NUGC-4, read-out: RMC-7977 EC50 (M), NUGC4, NF1 LOF, Stomach): 3.16e-09 M

— publication PMC11111408, “Concurrent inhibition of oncogenic and wild-type RAS-GTP for cancer therapy” (Nature, 2024)
